Assay results: PubChem BioAssay (NCI)
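Values below derive from 48-hour exposures of cells grown in 96-well plates, with endpoints linearly interpolated between the two concentrations bracketing the appropriate inhibition level. GI50 = concentration required for 50% inhibition of growth. TGI denotes the concentration required for complete inhibition of growth.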

What was measured:
Assay in all cases: growth of human tumour cells (NCI), 48 h
UO-31 renal = system: UO-31 renal
TK-10 renal = system: TK-10 renal
SF-295 CNS = system: SF-295 CNS
SF-268 CNS = system: SF-268 CNS
NCI-H226 lung = system: NCI-H226 lung
HT29 colon = system: HT29 colon
U251 CNS = system: U251 CNS
SK-MEL-2 melanoma = system: SK-MEL-2 melanoma

Row | SMILES | GI50 (UO-31 renal) | TGI (UO-31 renal) | GI50 (TK-10 renal) | TGI (TK-10 renal) | GI50 (SF-295 CNS) | TGI (SF-295 CNS) | GI50 (SF-268 CNS) | TGI (SF-268 CNS) | GI50 (NCI-H226 lung) | TGI (NCI-H226 lung) | GI50 (HT29 colon) | TGI (HT29 colon) | GI50 (U251 CNS) | TGI (U251 CNS) | GI50 (SK-MEL-2 melanoma) | TGI (SK-MEL-2 melanoma)
1 | COc1ccc2c(c1)-c1c(c3cc(OC)ccc3n(CCN(C)C)c1=O)C2=O | 0.127 µM | 1.23 µM | 1.65 µM | 6.98 µM | 0.714 µM | 2.99 µM | 0.362 µM | 6.21 µM | 0.665 µM | 10.4 µM | 0.24 µM | 1.2 µM | 0.443 µM | 6.77 µM |  | 
2 | CC/C=C\C[C@H]1C/C=C2/C(=O)C(Cl)=C[C@@H]2C/C=C\CCCC(=O)O1 | 0.352 µM | 0.703 µM | 0.597 µM | 1.41 µM | 0.705 µM | 2.26 µM | 0.496 µM | 2.39 µM | 0.524 µM | 1.56 µM | 0.325 µM | 0.79 µM | 0.214 µM | 0.694 µM | 0.453 µM | 1.13 µM
3 | C=C(C)C(=O)Nc1ccc(-c2c(-c3ccc(Oc4nccc(C)n4)c(F)c3)c3c(N)ncnc3n2C)cc1 | 1.18 µM | 2.98 µM | 4.98 µM | 30 µM | 2.59 µM | 13.4 µM | 1.67 µM | 16 µM | 0.812 µM | 7.46 µM | 3.22 µM | 14.2 µM | 6.21 µM | 25 µM | 2.7 µM | 9.74 µM
4 | O=C(NCCNCCO)c1ccc(Nc2nc3ccccc3c3occc23)cc1 | 18.5 µM | 44.9 µM | 2.11 µM | 6.67 µM | 14.1 µM | 29.8 µM | > 100 µM | > 100 µM |  |  | 29.3 µM | > 100 µM | 11.2 µM | 23.8 µM | 20.5 µM | 60.3 µM
5 | O=C1NC(=NCCc2ccc(Br)cc2)S/C1=C\c1ccc2ncccc2c1 | > 25 µM | > 25 µM | > 20.1 µM | > 25 µM | > 23.2 µM | > 25 µM | 15.9 µM | > 25 µM | > 25 µM | > 25 µM | > 25 µM | > 25 µM | > 18.9 µM | > 25 µM | 21.6 µM | > 25 µM
6 | C=CCSC(C)=O |  | > 100 µM |  | > 100 µM |  | > 100 µM |  | > 100 µM |  | > 100 µM |  | > 100 µM |  | > 100 µM |  | > 100 µM
7 | COc1cc(C(=O)O[C@H](C(=O)NCCCCNC(=O)[C@@H](OC(=O)c2cc(OC)cc3c(C)cccc23)[C@]2(C)CO2)[C@]2(C)CO2)c2cccc(C)c2c1 | 0.466 µM | > 100 µM | 0.469 µM | 1.36 µM | 0.122 µM | 0.672 µM | 0.0101 µM | 0.0619 µM | 0.62 µM | 2.07 µM | 0.104 µM | > 100 µM | < 0.01 µM | 0.107 µM | 0.0724 µM | 
8 | Cc1c(C(N)=O)sc2nc(C)n(/N=c3\scc(-c4ccccc4)n3Cc3ccccc3)c(=O)c12 | 1.66 µM | 7 µM | 3.78 µM | > 100 µM | 2.93 µM | > 100 µM | 4 µM | > 100 µM | 3.72 µM | 67.9 µM | 3.04 µM | > 100 µM | 3.32 µM | > 100 µM | 3.89 µM | 86.6 µM
9 | CCCCCCCCN=C(NCCCCCCCC)SCc1cccc2ccccc12 | 1.27 µM | 2.86 µM | 1.74 µM | 3.2 µM | 1.51 µM | 3.02 µM | 1.83 µM | 3.37 µM | 1.52 µM | 2.95 µM | 0.839 µM | 2.16 µM | 1.59 µM | 2.98 µM | 2.14 µM | 3.77 µM
10 | COc1ccc2c(c1)C(=O)c1c-2n(CCCN(C)C)c(=O)c2cc([N+](=O)[O-])ccc12 | < 0.01 µM | 0.0294 µM | 0.604 µM | 5.38 µM | < 0.01 µM | < 0.0188 µM | < 0.01 µM | 2.29 µM | < 0.0227 µM | 1.53 µM | < 0.01 µM | 0.61 µM | < 0.01 µM | 1.07 µM | 0.545 µM | 7.17 µM
11 | N#CC1=C(N)OC2=C(CCOc3c2ccc2ccccc32)C1c1ccc(Br)cc1 (stereo unspecified) | > 100 µM | > 100 µM | 21.6 µM | 61.6 µM | 18.1 µM | 83.8 µM | 27.8 µM | > 100 µM |  |  | 36.7 µM | > 100 µM |  |  |  | 
12 | COc1ccc2nc3ccccc3c(NCCCCN(CCCl)CCCl)c2c1 |  | 2.29 µM |  |  |  | 18.6 µM |  | 2.36 µM |  | 9.65 µM |  | > 100 µM |  | 1.83 µM |  | 2.06 µM
13 | CSc1ccc(C(=O)/C=C/c2ccc(Cl)cc2Cl)cc1 | 22.4 µM | 81.7 µM | 20.9 µM | 52.9 µM | 29.5 µM | > 100 µM | 20.8 µM | 48.9 µM | 26 µM | 82.9 µM |  |  | 16.9 µM | 32 µM | 17.6 µM | 59.3 µM
14 | Clc1ccc(-c2nc(NCc3ccco3)c3ccccc3n2)c(Cl)c1 | 26.8 µM | > 100 µM | 2.38 µM | 7.1 µM | 13.6 µM | 33.5 µM | 32.3 µM | 75.3 µM | 20.7 µM | > 100 µM |  |  | 16.5 µM | 47.4 µM | 36.8 µM | > 100 µM
15 | O=C1C(Cl)=C(NCCCN(CCCNC2=C(Cl)C(=O)c3ccccc3C2=O)C2=C(Cl)C(=O)c3ccccc3C2=O)C(=O)c2ccccc21 | 1.25 µM | 5.93 µM | 17.9 µM | 36.9 µM | 3.07 µM | 14.7 µM | 2.76 µM | 18.8 µM | 17.3 µM | 35.1 µM |  |  | 2.66 µM | 6.27 µM |  | 
16 | CC1=C(C(=O)Nc2ccc(Cl)c(Cl)c2)C(c2cccc(Cl)c2)NC(=S)N1 (stereo unspecified) | 11.1 µM | 24.9 µM | 17.7 µM | > 50 µM | 17.4 µM | > 50 µM | 16.5 µM | 41.8 µM |  |  | 16.1 µM | > 50 µM | 10.7 µM | 29.6 µM | 14.5 µM | 27.1 µM
17 | O=C1C=CC(=O)c2c1nc(CBr)[nH]c2=O |  | > 100 µM |  |  |  | > 100 µM |  | > 100 µM |  |  |  | > 100 µM |  | > 100 µM |  | > 100 µM
18 | Cc1c(-c2ccccn2)ccc2ccccc12 |  | 82.9 µM |  | > 100 µM |  | > 100 µM |  | > 100 µM |  | > 100 µM |  | > 100 µM |  | > 100 µM |  | 
